A value given as a limit tells only on which side of the number the result lay.

From patent publication US6235929A, “Tripeptide α-ketoamides” (Georgia Tech Research Corporation, priority 1996, dated 2001) come the findings set out here.

The nature of data set [1]: Half-life in plasma. As to conditions: unit inferred, unit assumed.
For data set [2], the target named is Calpain II from rabbit muscle. The experiment in a line: Calpain II inhibition, Suc-Leu-Tyr-AMC hydrolysis. It is filed as biochemical. On the procedure:
HEPES, heparin, and A23187 were obtained from Calbiochem. […] Calpain II from rabbit muscle and cathepsin B were purchased from Sigma. Papain was purchased from Calbiochem.
(§1) Peptide α-ketoamides were assayed as reversible enzyme inhibitors. Various concentrations of inhibitors in Me2 SO were added to the assay mixture which contained buffer and substrate. The reaction was started by the addition of the enzyme and the hydrolysis rates were followed spectrophotometrically or fluorimetrically.
(§2) Calpain I from human erythrocytes and calpain II from rabbit were assayed using Suc-Leu-Tyr-AMC [Sasaki et al., J. Biol. Chem. 259, 12489-12494 (1984); incorporated herein by reference], and the AMC (7-amino-4-methylcoumarin) release was followed fluorimetrically (excitation at 380 nm, and emmision at 460 nm). Calpains were assayed in 25 mM Tris pH=8.0, 10 mM CaCl2. Fluorescence was followed using a Gilson FL-1A fluorometer or a Perkin-Elmer 203 Fluorescence spectrometer. Cathepsin B was assayed in 20 mM sodium acetate pH=5.2, 0.5 mM dithiothreitol using Bz-Phe-Val-Arg-p-nitroanilide as substrate. Alternately, cathepsin B was assayed with Z-Arg-Arg-AFC [Barrett and Kirschke, Methods Enzymol. […] Enzymatic hydrolysis rates were measured at various substrate and inhibitor concentrations, and KI values were determined by either Lineweaver-Burk plots or Dixon plots. […]

Data set [3] can be described thus: Half-life in liver. Format: in vitro ADME. As to conditions: unit inferred, unit assumed.
The target of data set [4] is T1, Calpain I from human erythrocytes (Homo sapiens, UniProt P07384).
T1 construct: Calpain I was purified from human erythrocytes; from tissue; host or cells: human erythrocytes
T1 sequence (P07384 1-714): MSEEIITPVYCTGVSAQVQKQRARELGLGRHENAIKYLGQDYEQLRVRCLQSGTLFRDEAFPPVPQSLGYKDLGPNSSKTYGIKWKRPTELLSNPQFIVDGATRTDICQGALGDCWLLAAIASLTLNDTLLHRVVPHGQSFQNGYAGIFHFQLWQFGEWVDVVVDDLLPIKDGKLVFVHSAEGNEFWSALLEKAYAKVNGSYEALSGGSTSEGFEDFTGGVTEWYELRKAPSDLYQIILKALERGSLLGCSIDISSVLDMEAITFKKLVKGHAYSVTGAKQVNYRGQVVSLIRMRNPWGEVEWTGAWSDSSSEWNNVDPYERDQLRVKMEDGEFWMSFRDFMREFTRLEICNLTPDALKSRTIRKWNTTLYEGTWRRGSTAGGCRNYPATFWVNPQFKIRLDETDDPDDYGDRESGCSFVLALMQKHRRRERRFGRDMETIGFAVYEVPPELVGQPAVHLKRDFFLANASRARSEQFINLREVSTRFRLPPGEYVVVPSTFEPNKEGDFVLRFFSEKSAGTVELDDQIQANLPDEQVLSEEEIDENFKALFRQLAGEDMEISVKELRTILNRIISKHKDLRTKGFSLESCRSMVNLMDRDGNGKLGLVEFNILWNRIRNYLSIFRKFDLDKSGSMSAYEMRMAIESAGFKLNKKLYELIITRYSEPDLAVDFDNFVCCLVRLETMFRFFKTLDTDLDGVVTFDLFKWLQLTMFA
T1 sequence (P04632 1-268 partner): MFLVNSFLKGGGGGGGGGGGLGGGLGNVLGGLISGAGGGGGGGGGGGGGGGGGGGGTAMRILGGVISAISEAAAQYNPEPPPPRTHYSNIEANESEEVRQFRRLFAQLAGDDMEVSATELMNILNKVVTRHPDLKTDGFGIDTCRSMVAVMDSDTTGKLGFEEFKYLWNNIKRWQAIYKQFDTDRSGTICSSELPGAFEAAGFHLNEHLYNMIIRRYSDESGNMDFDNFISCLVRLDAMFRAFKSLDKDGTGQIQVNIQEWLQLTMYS
The data set is described as follows: Calpain I inhibition, Suc-Leu-Tyr-AMC hydrolysis. Format: biochemical. As to conditions: ratio of KI values. The protocol: (§3) HEPES, heparin, and A23187 were obtained from Calbiochem. Suc--Leu--Tyr--AMC and chromogenic substrates were obtained from Sigma Calpain I was purified from human erythrocytes according to the method of Kitahara (Kitahara et al., J. Biochem. 95, 1759-1766) omitting the Blue-Sepharose step. Calpain II from rabbit muscle and cathepsin B were purchased from Sigma. Papain was purchased from Calbiochem.
as §1
as §2, with “spectrometer.” for “spectrometer. Cathepsin B was assayed in 20 mM sodium acetate pH=5.2, 0.5 mM dithiothreitol using Bz-Phe-Val-Arg-p-nitroanilide as substrate. Alternately, cathepsin B was assayed with Z-Arg-Arg-AFC [Barrett and Kirschke, Methods Enzymol.”

Data set [5] has as its target T2, cathepsin B (Homo sapiens, UniProt P07858).
T2 construct: purchased Sigma
The data set is described as follows: Cathepsin B inhibition. Format: biochemical. The protocol: as §3, §1
as §2, with “spectrometer.” for “spectrometer. Cathepsin B was assayed in 20 mM sodium acetate pH=5.2, 0.5 mM dithiothreitol using Bz-Phe-Val-Arg-p-nitroanilide as substrate. Alternately, cathepsin B was assayed with Z-Arg-Arg-AFC [Barrett and Kirschke, Methods Enzymol.”

In data set [1], `CCOC(=O)C(=O)[C@H](CC)NC(=O)[C@H](CC(C)C)NC(=O)[C@H](CC(C)C)NC(=O)c1ccc2ccccc2c1` [2-NapCO-Leu-Leu-Abu-COOEt] displayed a t1/2 plasma of 0.417 h.
Same read-out and setting: under `CCOC(=O)C(=O)C(CC)NC(=O)C(CC(C)C)NC(=O)C(CC(C)C)NS(=O)(=O)c1ccc2ccccc2c1` (stereo not drawn) [2-NapSO2-Leu-Leu-Abu-COOEt, reference compound] stands > 1 h.
Regarding `CC[C@H](NC(=O)[C@H](CC(C)C)NC(=O)OCc1ccccc1)C(=O)C(=O)NCCc1ccccc1` [Z-Leu-Abu-CONH--(CH2)2 -Ph, Z--Leu--Abu--CONH--(CH2)2 Ph], in data set [2], the “KI Calpain II” value is reported as “best inhibitor”.
As for `CCC(NC(=O)C(CC(C)C)NC(=O)OCc1ccccc1)C(=O)C(=O)NCc1ccccc1` (stereo not drawn) [Z-Leu-Abu-CONH-Bzl, Z--Leu--Abu--CONH--Bzl], the t1/2 liver in data set [3] is > 1 h. For the same compound, the t1/2 plasma in data set [1] is > 1 h.
As to `CCNC(=O)C(=O)[C@H](CC)NC(=O)[C@H](CC(C)C)NC(=O)OCc1ccccc1` [Z-Leu-Abu-CONH-Et, Z--Leu--Abu--CONH--Et], in data set [4], the “fold better inhibitor of calpain I than Z--Leu--Phe--CONH--Et” value is 14 fold. Besides, the “KI Cath B” value in data set [5] is “best inhibitor”. In addition, the t1/2 liver in data set [3] was > 1 h. Moreover, the t1/2 plasma in data set [1] is > 1 h.
Regarding `CCC(NC(=O)C(CC(C)C)NC(=O)OCc1ccccc1)C(=O)C(=O)NCC(C)C` (stereo not drawn) [Z-Leu-Abu-CONH-iBu, Z--Leu--Abu--CONH--iBu], the t1/2 plasma in data set [1] is > 1 h.
Take `CCCCNC(=O)C(=O)C(CC)NC(=O)C(CC(C)C)NC(=O)OCc1ccccc1` (stereo not drawn) [Z-Leu-Abu-CONH-nBu, Z--Leu--Abu--CONH--nBu]: in data set [3], the t1/2 liver is > 1 h. Further, the t1/2 plasma in data set [1] was > 1 h.
Take `CCCNC(=O)C(=O)[C@H](CC)NC(=O)[C@H](CC(C)C)NC(=O)OCc1ccccc1` [Z-Leu-Abu-CONH-nPr, Z--Leu--Abu--CONH--nPr]: the t1/2 liver in data set [3] was > 1 h. Further, the t1/2 plasma in data set [1] was > 1 h.
`CCOC(=O)C(=O)[C@H](CC)NC(=O)[C@H](CC(C)C)NC(=O)OCc1ccccc1` [Z-Leu-Abu-COOEt, reference compound] showed a t1/2 plasma in data set [1] of 0.0467 h.
In the case of `CCC(NC(=O)C(CC(C)C)NC(=O)OCc1ccccc1)C(=O)C(=O)O` (stereo not drawn) [Z-Leu-Abu-COOH, reference compound], the t1/2 liver in data set [3] is > 1 h. Besides, in data set [1], the t1/2 plasma is > 1 h.
With `CCOC(=O)C(=O)C(CCSC)NC(=O)C(CC(C)C)NC(=O)OCc1ccccc1` (stereo not drawn) [Z-Leu-Met-COOEt], the t1/2 plasma in data set [1] came out at 0.133 h.
The same measure, in the same setting: under `CCCCC(NC(=O)C(CC(C)C)NC(=O)OCc1ccccc1)C(=O)C(=O)OCC` (stereo not drawn) [Z-Leu-Nle-COOEt, reference compound] stands 0.0617 h; under `CCCC(NC(=O)C(CC(C)C)NC(=O)OCc1ccccc1)C(=O)C(=O)OCC` (stereo not drawn) [Z-Leu-Nva-COOEt, reference compound], 0.0467 h; under `CC(C)C[C@H](NC(=O)OCc1ccccc1)C(=O)N[C@@H](Cc1ccccc1)C(=O)C(=O)NCCc1ccccc1` [Z-Leu-Phe-CONH(CH2)2 Ph, Z--Leu--Phe--CONH--(CH2)2 Ph], > 1 h.
As to `CCNC(=O)C(=O)[C@H](Cc1ccccc1)NC(=O)[C@H](CC(C)C)NC(=O)OCc1ccccc1` [Z-Leu-Phe-CONH-Et, Z--Leu--Phe--CONH--Et], the t1/2 liver in data set [3] is > 1 h. For the same compound, the t1/2 plasma in data set [1] is > 1 h.
Take `CC(C)CNC(=O)C(=O)[C@H](Cc1ccccc1)NC(=O)[C@H](CC(C)C)NC(=O)OCc1ccccc1` [Z-Leu-Phe-CONH-iBu, Z--Leu--Phe--CONH--iBu]: the t1/2 plasma in data set [1] was > 1 h.
In the case of `CCCCNC(=O)C(=O)C(Cc1ccccc1)NC(=O)C(CC(C)C)NC(=O)OCc1ccccc1` (stereo not drawn) [Z-Leu-Phe-CONH-nBu, Z--Leu--Phe--CONH--nBu], in data set [3], the t1/2 liver was > 1 h. The t1/2 plasma in data set [1] is > 1 h.
As for `CCCNC(=O)C(=O)C(Cc1ccccc1)NC(=O)C(CC(C)C)NC(=O)OCc1ccccc1` (stereo not drawn) [Z-Leu-Phe-CONH-nPr, Z--Leu--Phe--CONH--nPr], in data set [3], the t1/2 liver was > 1 h. The t1/2 plasma in data set [1] is > 1 h.
Turning to `CC(C)CC(NC(=O)OCc1ccccc1)C(=O)NC(Cc1ccccc1)C(=O)C(=O)OCc1ccccc1` (stereo not drawn) [Z-Leu-Phe-COOBz], the t1/2 plasma in data set [1] came out at 0.0317 h.
On the same count and under the same terms, the figure for `CCOC(=O)C(=O)C(Cc1ccccc1)NC(=O)C(CC(C)C)NC(=O)OCc1ccccc1` (stereo not drawn) [Z-Leu-Phe-COOEt, Z--Leu--Phe--COOEt, reference compound] is 0.13 h.
In the case of `CC(C)CC(NC(=O)OCc1ccccc1)C(=O)NC(Cc1ccccc1)C(=O)C(=O)O` (stereo not drawn) [Z-Leu-Phe-COOH, reference compound], the t1/2 liver in data set [3] was > 1 h. Further, the t1/2 plasma in data set [1] was > 1 h.
Consider `CCCCOC(=O)C(=O)[C@H](Cc1ccccc1)NC(=O)[C@H](CC(C)C)NC(=O)OCc1ccccc1` [Z-Leu-Phe-COOnBu], for which, in data set [1], the t1/2 plasma stood at 0.128 h.
